One block for each compound: values may come before it.
System: 843782-103-R-J1-PDC complex spheroid viability
Assay: Anticancer human tumor 843782-103-R-J1-PDC patient-derived lung adenocarcinoma cell line growth inhibition [RAS]
Details: for IC50: curve of first compound; for viability, T/C: stronger effect = lower value
Summary of the method: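 Multi-cell-type spheroids: tumor cells plus HUVEC endothelial cells and mesenchymal stem cells. RAS-pathway inhibitors were combined with targeted agents, each dosed in half-log steps down from clinical Cmax, or from 10 microM when Cmax was unknown.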

[1] = second compound 0.00316 µM, first compound 0.0316 µM
[2] = second compound 0.00316 µM, first compound 0.1 µM
[3] = second compound 0.00316 µM, first compound 0.316 µM
[4] = second compound 0.00316 µM, first compound 1 µM
[5] = second compound 0.00316 µM, first compound 3.16 µM
[6] = second compound 0.00316 µM, first compound 10 µM
[7] = second compound 0.01 µM, first compound 0.0316 µM
[8] = second compound 0.01 µM, first compound 0.1 µM
[9] = second compound 0.01 µM, first compound 0.316 µM
[10] = second compound 0.01 µM, first compound 1 µM
[11] = second compound 0.01 µM, first compound 3.16 µM
[12] = second compound 0.01 µM, first compound 10 µM
[13] = second compound 0.0316 µM, first compound 0.0316 µM
[14] = second compound 0.0316 µM, first compound 0.1 µM
[15] = second compound 0.0316 µM, first compound 0.316 µM
[16] = second compound 0.0316 µM, first compound 1 µM
[17] = second compound 0.0316 µM, first compound 3.16 µM
[18] = second compound 0.0316 µM, first compound 10 µM
[19] = second compound 0.1 µM, first compound 0.0316 µM
[20] = second compound 0.1 µM, first compound 0.1 µM
[21] = second compound 0.1 µM, first compound 0.316 µM
[22] = second compound 0.1 µM, first compound 1 µM
[23] = second compound 0.1 µM, first compound 3.16 µM
[24] = second compound 0.1 µM, first compound 10 µM
[25] = second compound 0.316 µM, first compound 0.0316 µM
[26] = second compound 0.316 µM, first compound 0.1 µM
[27] = second compound 0.316 µM, first compound 0.316 µM
[28] = second compound 0.316 µM, first compound 1 µM
[29] = second compound 0.316 µM, first compound 3.16 µM
[30] = second compound 0.316 µM, first compound 10 µM
[31] = second compound 1 µM, first compound 0.0316 µM
[32] = second compound 1 µM, first compound 0.1 µM
[33] = second compound 1 µM, first compound 0.316 µM
[34] = second compound 1 µM, first compound 1 µM
[35] = second compound 1 µM, first compound 3.16 µM
[36] = second compound 1 µM, first compound 10 µM
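Further: viability read after seven days of compound exposure.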

IC50 (second compound 0.00316 µM): 211 nM
IC50 (second compound 0.01 µM): 385 nM
IC50 (second compound 0.0316 µM): 200 nM
IC50 (second compound 0.1 µM): 311 nM
IC50 (second compound 0.316 µM): 277 nM
IC50 (second compound 1 µM): 313 nM
SMILES: Cc1nc(N2CCC3(CC2)COC(C)C3N)c(CO)nc1Sc1ccnc(N)c1Cl (centres undefined) + C=CC(=O)N1CCN(c2nc(OCC3CCCN3C)nc3c(F)c(-c4nc(N)cc(C)c4C(F)(F)F)c(Cl)cc23)C(C)C1
viability, T/C [1]: 88.9%
viability, T/C [2]: 58.6%
viability, T/C [3]: 47.4%
viability, T/C [4]: 32.8%
viability, T/C [5]: 32.5%
viability, T/C [6]: 27.2%
viability, T/C [7]: 79.5%
viability, T/C [8]: 66.8%
viability, T/C [9]: 51.4%
viability, T/C [10]: 37.4%
viability, T/C [11]: 35.6%
viability, T/C [12]: 22.6%
viability, T/C [13]: 77.7%
viability, T/C [14]: 57.6%
viability, T/C [15]: 45.8%
viability, T/C [16]: 36.2%
viability, T/C [17]: 30.5%
viability, T/C [18]: 32.1%
viability, T/C [19]: 70%
viability, T/C [20]: 61.4%
viability, T/C [21]: 51.5%
viability, T/C [22]: 35%
viability, T/C [23]: 35.1%
viability, T/C [24]: 27.1%
viability, T/C [25]: 85.7%
viability, T/C [26]: 67%
viability, T/C [27]: 48%
viability, T/C [28]: 34.2%
viability, T/C [29]: 35.5%
viability, T/C [30]: 26.9%
viability, T/C [31]: 80.6%
viability, T/C [32]: 64.3%
viability, T/C [33]: 49.7%
viability, T/C [34]: 40.2%
viability, T/C [35]: 31.1%
viability, T/C [36]: 29.7%

IC50 (second compound 0.00316 µM): 1420 nM
IC50 (second compound 0.01 µM): 1500 nM
IC50 (second compound 0.0316 µM): 1420 nM
IC50 (second compound 0.1 µM): 1480 nM
IC50 (second compound 0.316 µM): 1420 nM
IC50 (second compound 1 µM): 1630 nM
SMILES: CCC(CC)c1cc(NC2CCC(N)C2)n2nccc2n1 (centres undefined) + C=CC(=O)N1CCN(c2nc(OCC3CCCN3C)nc3c(F)c(-c4nc(N)cc(C)c4C(F)(F)F)c(Cl)cc23)C(C)C1
viability, T/C [1]: 99.4%
viability, T/C [2]: 87.9%
viability, T/C [3]: 91.9%
viability, T/C [4]: 71.3%
viability, T/C [5]: 1.31%
viability, T/C [6]: 0.48%
viability, T/C [7]: 94.5%
viability, T/C [8]: 88.3%
viability, T/C [9]: 84.7%
viability, T/C [10]: 76.2%
viability, T/C [11]: 1.43%
viability, T/C [12]: 0.54%
viability, T/C [13]: 91.6%
viability, T/C [14]: 88.5%
viability, T/C [15]: 83.3%
viability, T/C [16]: 71.2%
viability, T/C [17]: 1.09%
viability, T/C [18]: 0.49%
viability, T/C [19]: 79.9%
viability, T/C [20]: 87.6%
viability, T/C [21]: 90.6%
viability, T/C [22]: 75.3%
viability, T/C [23]: 1.17%
viability, T/C [24]: 0.4%
viability, T/C [25]: 91.7%
viability, T/C [26]: 84.8%
viability, T/C [27]: 88.6%
viability, T/C [28]: 71%
viability, T/C [29]: 1.54%
viability, T/C [30]: 0.46%
viability, T/C [31]: 88.4%
viability, T/C [32]: 87.1%
viability, T/C [33]: 88.7%
viability, T/C [34]: 86.1%
viability, T/C [35]: 0.8%
viability, T/C [36]: 0.59%

Reference: PubChem BioAssay AID2060883 (Molecular Pharmacology Branch, DTP, NCI, 2025)
